Measurements published in PubChem BioAssay (NCI).
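48-hour exposure; five concentrations; linearly interpolated endpoints. At the GI50, growth is halved. TGI is the concentration that stops growth completely.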

Experiments:
Assay in all cases: NCI-60 cell line screen, 48 h
KM12 colon = system: KM12 colon
TK-10 renal = system: TK-10 renal
SNB-75 CNS = system: SNB-75 CNS
SF-268 CNS = system: SF-268 CNS
HOP-92 NSCLC = system: HOP-92 NSCLC
UACC-257 melanoma = system: UACC-257 melanoma
HT29 colon = system: HT29 colon
SF-295 CNS = system: SF-295 CNS
K-562 leukemia = system: K-562 leukemia
SK-OV-3 ovarian = system: SK-OV-3 ovarian
SW-620 colon = system: SW-620 colon
RXF 393 renal = system: RXF 393 renal
PC-3 prostate = system: PC-3 prostate
786-0 renal = system: 786-0 renal
SN12C renal = system: SN12C renal
MCF7 breast = system: MCF7 breast
SNB-19 CNS = system: SNB-19 CNS
A498 renal = system: A498 renal
OVCAR-4 ovarian = system: OVCAR-4 ovarian
SF-539 CNS = system: SF-539 CNS
HCT-15 colon = system: HCT-15 colon
U251 CNS = system: U251 CNS
CAKI-1 renal = system: CAKI-1 renal
HL-60(TB) leukemia = system: HL-60(TB) leukemia
OVCAR-5 ovarian = system: OVCAR-5 ovarian
HCT-116 colon = system: HCT-116 colon
IGROV1 ovarian = system: IGROV1 ovarian
M14 melanoma = system: M14 melanoma
NCI-H460 lung = system: NCI-H460 lung
NCI-H226 lung = system: NCI-H226 lung
MDA-MB-435 = system: MDA-MB-435
A549 NSCLC = system: A549 NSCLC
EKVX NSCLC = system: EKVX NSCLC
SK-MEL-2 melanoma = system: SK-MEL-2 melanoma
OVCAR-8 ovarian = system: OVCAR-8 ovarian
LOX IMVI melanoma = system: LOX IMVI melanoma
BT-549 breast = system: BT-549 breast
NCI/ADR-RES ovarian = system: NCI/ADR-RES ovarian
HOP-62 NSCLC = system: HOP-62 NSCLC
SK-MEL-28 melanoma = system: SK-MEL-28 melanoma
DU-145 prostate = system: DU-145 prostate
T-47D breast = system: T-47D breast
RPMI-8226 leukemia = system: RPMI-8226 leukemia
UO-31 renal = system: UO-31 renal
UACC-62 melanoma = system: UACC-62 melanoma
MOLT-4 leukemia = system: MOLT-4 leukemia
SR leukemia = system: SR leukemia
HCC-2998 colon = system: HCC-2998 colon
COLO 205 colon = system: COLO 205 colon
ACHN renal = system: ACHN renal
NCI-H522 lung = system: NCI-H522 lung
NCI-H23 lung = system: NCI-H23 lung
HS 578T breast = system: HS 578T breast
CCRF-CEM leukemia = system: CCRF-CEM leukemia
MDA-MB-231 breast = system: MDA-MB-231 breast
MALME-3M melanoma = system: MALME-3M melanoma
SK-MEL-5 melanoma = system: SK-MEL-5 melanoma

## O=C(NNc1nc2cc(F)ccc2n2c(CN3CCC(O)C3)ccc12)c1cnccn1 (stereo not drawn)
KM12 colon
  GI50: 0.573 µM
  TGI: > 100 µM
TK-10 renal
  GI50: 0.921 µM
  TGI: > 100 µM
SNB-75 CNS
  GI50: 1.96 µM
  TGI: > 30.4 µM
SF-268 CNS
  GI50: 0.744 µM
  TGI: > 100 µM
HOP-92 NSCLC
  GI50: 0.59 µM
  TGI: > 100 µM
UACC-257 melanoma
  GI50: 1.71 µM
  TGI: 7.53 µM
HT29 colon
  GI50: 0.512 µM
  TGI: > 100 µM
SF-295 CNS
  GI50: 0.421 µM
  TGI: > 100 µM
K-562 leukemia
  GI50: 0.564 µM
  TGI: > 100 µM
SK-OV-3 ovarian
  GI50: 0.858 µM
  TGI: > 28.9 µM
SW-620 colon
  GI50: 0.973 µM
  TGI: > 100 µM
RXF 393 renal
  GI50: 0.946 µM
  TGI: > 40.5 µM
PC-3 prostate
  GI50: 0.79 µM
  TGI: > 100 µM
786-0 renal
  GI50: 0.308 µM
  TGI: > 22.8 µM
SN12C renal
  GI50: 0.953 µM
  TGI: > 100 µM
MCF7 breast
  GI50: 0.725 µM
  TGI: > 100 µM
SNB-19 CNS
  GI50: 1 µM
  TGI: > 100 µM
A498 renal
  GI50: 2.04 µM
  TGI: 8.91 µM
OVCAR-4 ovarian
  GI50: 0.676 µM
  TGI: > 100 µM
SF-539 CNS
  GI50: 0.763 µM
  TGI: > 100 µM
HCT-15 colon
  GI50: 0.148 µM
  TGI: > 100 µM
U251 CNS
  GI50: 0.47 µM
  TGI: > 100 µM
CAKI-1 renal
  GI50: 0.515 µM
  TGI: > 100 µM
HL-60(TB) leukemia
  GI50: 0.622 µM
  TGI: 6.36 µM
OVCAR-5 ovarian
  GI50: 1.83 µM
  TGI: > 100 µM
HCT-116 colon
  GI50: 0.0876 µM
  TGI: > 35.1 µM
IGROV1 ovarian
  GI50: 0.679 µM
  TGI: > 100 µM
M14 melanoma
  TGI: 1.08 µM
NCI-H460 lung
  GI50: 0.315 µM
  TGI: > 31.6 µM
NCI-H226 lung
  GI50: 0.92 µM
  TGI: > 63.4 µM
MDA-MB-435
  GI50: 1.58 µM
  TGI: > 100 µM
A549 NSCLC
  GI50: 0.555 µM
  TGI: > 100 µM
EKVX NSCLC
  GI50: 0.449 µM
  TGI: > 100 µM
SK-MEL-2 melanoma
  GI50: 4.09 µM
  TGI: > 100 µM
OVCAR-8 ovarian
  GI50: 0.439 µM
  TGI: > 44.5 µM
LOX IMVI melanoma
  GI50: 0.417 µM
  TGI: 6.16 µM
BT-549 breast
  GI50: 0.327 µM
  TGI: 9.35 µM
NCI/ADR-RES ovarian
  GI50: 0.33 µM
  TGI: > 35.5 µM
HOP-62 NSCLC
  GI50: 0.429 µM
  TGI: > 30.6 µM
SK-MEL-28 melanoma
  GI50: 0.795 µM
  TGI: > 100 µM
DU-145 prostate
  GI50: 0.981 µM
  TGI: > 100 µM
T-47D breast
  GI50: 1.19 µM
  TGI: > 100 µM
RPMI-8226 leukemia
  GI50: 0.747 µM
  TGI: > 100 µM
UO-31 renal
  GI50: 0.0972 µM
  TGI: 10.1 µM
UACC-62 melanoma
  GI50: 0.408 µM
  TGI: 84.4 µM
MOLT-4 leukemia
  GI50: 0.489 µM
  TGI: > 51.3 µM
SR leukemia
  GI50: 0.389 µM
  TGI: > 21.8 µM
HCC-2998 colon
  GI50: 0.738 µM
  TGI: > 100 µM
COLO 205 colon
  GI50: 0.406 µM
  TGI: > 100 µM
ACHN renal
  GI50: 0.217 µM
  TGI: 36.2 µM
NCI-H522 lung
  GI50: 1.13 µM
  TGI: 14.7 µM
NCI-H23 lung
  GI50: 1.1 µM
  TGI: > 100 µM
HS 578T breast
  GI50: 8.66 µM
  TGI: > 100 µM
CCRF-CEM leukemia
  GI50: 0.347 µM
  TGI: > 100 µM
MDA-MB-231 breast
  GI50: 0.941 µM
  TGI: > 100 µM
MALME-3M melanoma
  GI50: 1.57 µM
  TGI: > 100 µM
SK-MEL-5 melanoma
  GI50: 1 µM
  TGI: 8.29 µM
